Test results published in ChEMBL document CHEMBL1201862, “PubChem BioAssay data set” (2004).
The source made the active and inactive calls.

How the values were obtained:
[1] = alpha-synuclein stem-loop luciferase translation blockers – H4 neuroglioma cells, luminescence, confirmation (AID 1988); assay type: functional, cell-based
[2] = target: T1, Heat shock factor protein 1 (Mus musculus, UniProt P38532); experiment: enhancement of HSF1-driven luciferase signal – cell-based, NIH3T3, luminescence, dose retest, confirmation (AID 435004); assay type: functional;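 also: stress induced by proteasome inhibitor MG132 added 30 min after compound; luciferase reporter driven by HSF1 response element in NIH3T3 cells; actives raise luminescence as potentiators of the MG132 stress response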
T1 sequence (P38532 whole entry): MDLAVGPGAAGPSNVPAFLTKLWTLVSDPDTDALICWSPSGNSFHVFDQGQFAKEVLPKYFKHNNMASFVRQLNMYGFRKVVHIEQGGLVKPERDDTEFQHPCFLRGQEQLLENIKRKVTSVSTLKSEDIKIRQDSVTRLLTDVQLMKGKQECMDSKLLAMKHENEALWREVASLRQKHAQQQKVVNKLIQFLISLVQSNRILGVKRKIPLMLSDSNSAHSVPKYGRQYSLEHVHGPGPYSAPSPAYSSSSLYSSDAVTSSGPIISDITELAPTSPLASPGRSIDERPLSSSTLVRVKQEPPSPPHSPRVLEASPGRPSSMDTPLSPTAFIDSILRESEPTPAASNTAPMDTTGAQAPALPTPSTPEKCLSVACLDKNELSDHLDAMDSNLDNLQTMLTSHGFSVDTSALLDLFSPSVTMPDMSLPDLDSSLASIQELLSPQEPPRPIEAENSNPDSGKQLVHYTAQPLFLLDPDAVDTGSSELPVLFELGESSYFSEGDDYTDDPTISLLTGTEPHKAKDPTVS

[3] = HEK-293T viability loss after treatment – luminescence, T-cell screen hits, cytotoxicity control for TCR NF-kB inhibitor project, dose response (AID 489026); assay type: functional, cell-based;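 also: cells exposed to compound about 14 hours before the viability readout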
INS1 = experiment: INS-1E survival protection against cytokine death – cell-based, luminescence, retest, dose response (AID 449756); assay type: functional; conditions: Rattus norvegicus;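 also: cell death triggered by IL-1 beta plus TNF-alpha plus IFN-gamma mixture; protective hits raise ATP signal compared with cytokine alone wells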
[4] = luciferase reporter signal suppression in cells – H4 neuroglioma cells, luminescence, dose response (AID 1990); assay type: functional, cell-based
[5] = Luminescence Cell-Based Dose Response HTS to Identify Inhibitors of 5'UTR Stem-Loop Driven Prion Protein mRNA Translation in H4 Neuroglioblastoma Cells. [Related pubchem assays: 1827 (Project Summary), 1813 (Primary HTS)]; assay type: functional
Escherichia coli = experiment: microbe, parasite or virus in culture
HEK293 [6] = experiment: SAR Analysis of small molecule inhibitors of T-cell specific antigen receptor-induced NF-kB activation in a HEK-293T cell line using a luminescence assay - Set 2. [Related pubchem assays (depositor defined):AID435003, AID435012, AID489026]; assay type: functional, cell-based; conditions: Homo sapiens
HEK293 [7] = experiment: HEK293T cell viability loss, resazurin readout – resazurin fluorescence, cytotoxicity control for NF-kB activator project, SAR follow-up (AID 493251); assay type: functional, cell-based; conditions: Homo sapiens
Jurkat = experiment: SAR Analysis of small molecule inhibitors of T-cell specific antigen receptor-induced NF-kB activation in a Jurkat cell line using a luminescence assay - Set 2. [Related pubchem assays (depositor defined):AID435003, AID435012, AID465]; assay type: functional, cell-based; conditions: Homo sapiens
[8] = target: 72 kDa type IV collagenase (Homo sapiens, UniProt P08253); experiment: Dose Response validation of uHTS RPN11 inhibitor hits using a MMP-2 Fluorescence assay.; assay type: functional
[9] = target: 26S proteasome non-ATPase regulatory subunit 14 (Homo sapiens, UniProt O00487); experiment: inhibition of proteasome subunit RPN11 – biochemical, fluorescence polarization, uHTS hits, confirmation (AID 602368); assay type: functional
Prothrombin = Prothrombin (Bos taurus, UniProt P00735); experiment: thrombin protease inhibitors – biochemical, fluorescence polarization, uHTS hits, dose response (AID 602369); assay type: functional
[10] = target: T2, RNA-binding protein pos-1 (Caenorhabditis elegans, UniProt G5EF15); experiment: disruptors of C. elegans POS-1 RNA interaction – biochemical, fluorescence polarization, dose response (AID 1964);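 also: purified POS-1 fused to maltose binding protein made in E. coli; potency of compounds blocking POS-1 binding to fluorescent RNA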
T2 sequence (G5EF15 whole entry): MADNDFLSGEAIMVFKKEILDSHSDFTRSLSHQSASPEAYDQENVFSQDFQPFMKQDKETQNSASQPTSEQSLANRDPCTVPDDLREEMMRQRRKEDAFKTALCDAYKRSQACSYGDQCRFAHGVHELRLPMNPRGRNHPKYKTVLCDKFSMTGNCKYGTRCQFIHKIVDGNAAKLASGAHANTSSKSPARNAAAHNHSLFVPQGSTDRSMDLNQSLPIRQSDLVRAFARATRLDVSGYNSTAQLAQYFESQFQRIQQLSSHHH

[11] = target: T3, Zinc finger protein mex-5 (Caenorhabditis elegans, UniProt Q9XUB2); experiment: potency of MEX-5 RNA-binding blockers – biochemical, C. elegans, fluorescence polarization, dose response (AID 1960)
T3 sequence (Q9XUB2 whole entry): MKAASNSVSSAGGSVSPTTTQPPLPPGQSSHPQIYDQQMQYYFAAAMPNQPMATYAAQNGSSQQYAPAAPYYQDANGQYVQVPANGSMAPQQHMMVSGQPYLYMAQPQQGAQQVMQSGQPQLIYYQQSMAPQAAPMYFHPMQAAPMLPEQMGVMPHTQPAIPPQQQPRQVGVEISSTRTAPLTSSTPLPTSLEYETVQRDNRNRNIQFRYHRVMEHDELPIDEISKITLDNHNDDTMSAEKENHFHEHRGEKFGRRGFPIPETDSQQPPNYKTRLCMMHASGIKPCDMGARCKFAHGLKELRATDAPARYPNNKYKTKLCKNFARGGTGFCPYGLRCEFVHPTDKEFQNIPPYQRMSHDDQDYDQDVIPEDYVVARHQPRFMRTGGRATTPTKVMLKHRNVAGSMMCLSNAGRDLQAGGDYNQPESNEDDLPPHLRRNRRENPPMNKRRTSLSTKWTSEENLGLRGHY

HEK293 [12] = experiment: inhibition of NOD1-driven NF-kB reporter – cell-based, luminescence, uHTS, primary screen (AID 1578); assay type: functional; conditions: Homo sapiens
HEK293 [13] = experiment: cells; assay type: functional, cell-based; conditions: Homo sapiens
HEK293 [14] = experiment: NOD2 signaling inhibitors in MDP-stimulated cells, cell-based, uHTS, luminescence (AID 2001); assay type: functional; conditions: Homo sapiens
HEK293 [15] = experiment: cells; assay type: functional, cell-based; conditions: Homo sapiens; remark: listed apart in the source

Chain of 26S proteasome non-ATPase regulatory subunit 14 (O00487 whole entry): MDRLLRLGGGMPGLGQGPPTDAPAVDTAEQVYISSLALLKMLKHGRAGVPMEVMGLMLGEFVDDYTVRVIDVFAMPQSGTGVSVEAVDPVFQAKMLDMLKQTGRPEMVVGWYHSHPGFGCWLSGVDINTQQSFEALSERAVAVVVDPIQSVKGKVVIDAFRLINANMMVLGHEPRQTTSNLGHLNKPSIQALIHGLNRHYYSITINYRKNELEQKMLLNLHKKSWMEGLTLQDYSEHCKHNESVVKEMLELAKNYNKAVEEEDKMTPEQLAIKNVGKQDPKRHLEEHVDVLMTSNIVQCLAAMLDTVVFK
Chain of 72 kDa type IV collagenase (P08253 whole entry): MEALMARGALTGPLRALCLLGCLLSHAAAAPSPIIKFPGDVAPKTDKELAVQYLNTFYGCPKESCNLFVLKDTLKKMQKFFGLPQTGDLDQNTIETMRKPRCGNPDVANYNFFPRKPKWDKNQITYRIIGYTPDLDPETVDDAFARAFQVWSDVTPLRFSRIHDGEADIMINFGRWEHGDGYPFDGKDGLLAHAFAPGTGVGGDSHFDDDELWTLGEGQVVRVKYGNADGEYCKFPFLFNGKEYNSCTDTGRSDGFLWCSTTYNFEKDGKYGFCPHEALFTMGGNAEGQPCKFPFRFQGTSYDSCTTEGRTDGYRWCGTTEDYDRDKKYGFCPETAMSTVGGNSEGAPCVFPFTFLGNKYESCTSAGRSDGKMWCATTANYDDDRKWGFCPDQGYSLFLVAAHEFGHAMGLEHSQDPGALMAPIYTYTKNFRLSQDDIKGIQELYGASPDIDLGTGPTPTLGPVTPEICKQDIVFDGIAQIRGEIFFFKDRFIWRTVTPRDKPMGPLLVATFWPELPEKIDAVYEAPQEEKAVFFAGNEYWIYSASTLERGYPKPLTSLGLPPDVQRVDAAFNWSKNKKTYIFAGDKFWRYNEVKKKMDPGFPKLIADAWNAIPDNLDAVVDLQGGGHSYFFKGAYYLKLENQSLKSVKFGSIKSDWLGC

## O=[N+]([O-])c1ccc(-c2nc(C(Cl)Cl)c3ccccc3n2)cc1
[1]
  EC50: 0.336 µM (active)
[2]
  EC50: > 260 µM (inconclusive)
[3]
  IC50: > 80 µM (inactive)
INS1
  AC50: 1.89 µM (active)
[4]
  EC50: 1.79 µM (active)
[5]
  EC50: 0.407 µM (active)

## CC(C)(C)OC(=O)NCC(=O)N1CCC(C(=O)O)CC1
Escherichia coli
  AC50: 26.6 µM (active)

## Cc1cc(-c2nc3ncccc3o2)ccc1NC(=O)c1ccc([N+](=O)[O-])o1
HEK293 [6]
  IC50: 30 µM (inactive)
HEK293 [7]
  IC50: 32 µM (inactive)
Jurkat
  IC50: 19.4 µM (active)

## COc1cc(/C=C2/C(=N)N3C(=NC2=O)SN=C3S(C)(=O)=O)ccc1OC(=O)c1ccco1
[8]
  IC50: 94.8 µM (active)
[9]
  IC50: 31.9 µM (active)
Prothrombin
  IC50: 34.4 µM (active)

## Cc1cc(C)c2c(=O)[nH]c(=O)n(Cc3ccccc3)c2n1
[10]
  EC50: > 300 µM (not active)
[8]
  IC50: > 100 µM (inactive)
[9]
  IC50: 38.4 µM (active)
Prothrombin
  IC50: 46.6 µM (active)
[11]
  EC50: > 300 µM (not active)

## CCc1cc(C(=O)NC2CCCN(Cc3ccccc3F)C2)n(C)n1 (stereo unspecified)
HEK293 [12]
  EC50: 9.78 µM (active)
HEK293 [13]
  IC50: > 20 µM (inactive)
HEK293 [14]
  IC50: > 20 µM (inactive)
HEK293 [15]
  IC50: 16.5 µM (active)

## COc1ccc(C(=O)Nc2ccc(NC(=O)c3cc4ccccc4o3)cc2)cc1OC
HEK293 [6]
  IC50: > 80 µM (inactive)
HEK293 [7]
  IC50: > 80 µM (inactive)
Jurkat
  IC50: > 79 µM (inactive)

## COc1ccc(C2SCCN2S(=O)(=O)c2ccccc2)cc1 (stereo unspecified)
Escherichia coli
  AC50: 95.3 µM (active)
